Test results taken from US10307413B2, “Tetrahydro- and dihydro-isoquinoline PRMT5 inhibitors and uses thereof” (Epizyme, Inc., priority 2013, dated 2019).
Read-outs that look alike come from different tables or passages of the source.

Columns and labels:
[1] = tested on: symmetric di-methyl arginine in Z-138 cells; test: Z-138 Methylation Assay (In Cell Western for symmetric di-methyl arginine and DNA content); format: cell-based; conditions: Homo sapiens, read-out: ICW EC50
Summary of the method: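 Z-138 cells (50,000 cells/mL) treated with compound 96 h at 37 °C, then fixed and stained for symmetric di-methyl arginine (800 nm) with DRAQ5 DNA counterstain (700 nm) on Licor Odyssey.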

Z-138 cell line = test: Z-138 Proliferation Assay (Cell Titer Glo, 5 days); format: cell-based; conditions: Homo sapiens, read-out: Proliferation EC50
Summary of the method: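 Z-138 cells exposed 5 days at 37 °C, 5% CO2 to nine-point 3-fold dilutions (final top 20 μM, 0.2% DMSO), in triplicate. Viability read as ATP by CellTiter-Glo luminescence; IC50 from 4-parameter fit of normalized dose-response curves.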

PRMT5/MEP50 = PRMT5/MEP50 (Homo sapiens (Human), UniProt O14744); test: PRMT5 Biochemical Assay (PRMT5/MEP50 enzyme assay on peptide substrate, 3H-SAM Flashplate)
Chain of PRMT5/MEP50 (O14744 other isoform, or with tags, fused parts or gaps): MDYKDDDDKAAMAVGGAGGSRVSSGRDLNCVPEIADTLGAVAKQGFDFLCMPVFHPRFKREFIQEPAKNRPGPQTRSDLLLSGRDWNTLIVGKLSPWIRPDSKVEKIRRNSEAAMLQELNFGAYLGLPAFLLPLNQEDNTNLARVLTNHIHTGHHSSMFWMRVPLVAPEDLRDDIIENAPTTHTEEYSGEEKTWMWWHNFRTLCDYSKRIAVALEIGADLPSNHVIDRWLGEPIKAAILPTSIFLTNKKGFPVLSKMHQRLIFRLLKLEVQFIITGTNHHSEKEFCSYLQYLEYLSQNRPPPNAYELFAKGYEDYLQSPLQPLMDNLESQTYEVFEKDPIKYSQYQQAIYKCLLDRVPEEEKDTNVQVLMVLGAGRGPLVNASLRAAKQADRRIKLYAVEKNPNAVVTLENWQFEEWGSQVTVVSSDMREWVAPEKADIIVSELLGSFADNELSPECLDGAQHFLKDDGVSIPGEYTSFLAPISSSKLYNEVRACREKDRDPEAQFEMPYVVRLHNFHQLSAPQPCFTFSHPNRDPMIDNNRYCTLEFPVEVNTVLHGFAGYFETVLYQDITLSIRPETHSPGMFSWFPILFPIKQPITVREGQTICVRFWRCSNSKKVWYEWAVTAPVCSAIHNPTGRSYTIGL
Chain of PRMT5/MEP50 (Q9BQA1 other isoform, or with tags, fused parts or gaps partner): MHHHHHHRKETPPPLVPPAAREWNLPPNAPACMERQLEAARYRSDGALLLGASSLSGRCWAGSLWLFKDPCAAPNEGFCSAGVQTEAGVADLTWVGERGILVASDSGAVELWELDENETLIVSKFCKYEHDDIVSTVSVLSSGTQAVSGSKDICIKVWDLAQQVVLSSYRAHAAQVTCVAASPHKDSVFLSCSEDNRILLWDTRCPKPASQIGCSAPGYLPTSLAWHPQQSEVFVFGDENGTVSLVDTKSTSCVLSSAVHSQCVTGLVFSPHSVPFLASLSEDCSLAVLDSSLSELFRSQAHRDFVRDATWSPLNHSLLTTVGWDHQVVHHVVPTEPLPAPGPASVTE
Source text: S-adenosylmethionine (SAM), S-adenosylhomocysteine (SAH), bicine, KCl, Tween20, dimethylsulfoxide (DMSO), bovine skin gelatin (BSG), and Tris(2-carboxyethyl)phosphine hydrochloride solution (TCEP) were purchased from Sigma-Aldrich at the highest level of purity possible. ^3H-SAM was purchase from American Radiolabeled Chemicals with a specific activity of 80 Ci/mmol. 384-well streptavidin Flashplates were purchased from PerkinElmer.
Peptide representative of human histone H4 residues 1-15 was synthesized with a C-terminal linker-affinity tag motif and a C-terminal amide cap by 21st Century Biochemicals.
The amplified genes were sublconed into pENTR/D/TEV (Life Technologies) and subsequently transferred by Gateway™ attL×attR recombination to pDEST8 baculovirus expression vector (Life Technologies).
Protein over-expression was accomplished by infecting exponentially growing Spodoptera frugiperda (SF9) cell culture at 1.2×10^6 cell/ml with a 5000 fold dilution of BIIC stock. Infections were carried out at 27° C. for 72 hours, harvested by centrifugation, and stored at −80° C. for purification.
Flag-PRMT5/6His-MeP50 was eluted with 300 mM Imidazole in the same buffer.
General Procedure for PRMT5/MEP50 Enzyme Assays on Peptide Substrates.
The assays were all performed in a buffer consisting of 20 mM Bicine (pH=7.6), 1 mM TCEP, 0.005% BSG, and 0.002% Tween20, prepared on the day of use. […] DMSO (1 ul) was added to Columns 11, 12, 23, 24, rows A-H for the maximum signal control and 1 ul of SAH, a known product and inhibitor of PRMT5/MEP50, was added to columns 11, 12, 23, 24, rows I-P for the minimum signal control. A cocktail (40 ul) containing the PRMT5/MEP50 enzyme and the peptide was added by Multidrop Combi (Thermo-Fisher). The compounds were allowed to incubate with PRMT5/MEP50 for 30 min at 25 degrees Celsius, then a cocktail (10 ul) containing ^3H-SAM was added to initiate the reaction (final volume=51 ul). […] The assays were stopped by the addition of non-radioactive SAM (10 ul) to a final concentration of 600 uM, which dilutes the ^3H-SAM to a level where its incorporation into the peptide substrate is no longer detectable. 50 ul of the reaction in the 384-well polypropylene plate was then transferred to a 384-well Flashplate and the biotinylated peptides were allowed to bind to the streptavidin surface for at least 1 hour before being washed three times with 0.1% Tween20 in a Biotek ELx405 plate washer. The plates were then read in a PerkinElmer TopCount plate reader to measure the quantity of ^3H-labeled peptide bound to the Flashplate surface, measured as disintegrations per minute (dpm) or alternatively, referred to as counts per minute (cpm).
[formula] [formula] Where dpm=disintegrations per minute, cmpd=signal in assay well, and min and max are the respective minimum and maximum signal controls.
[formula] [formula] Where top and bottom are the normally allowed to float, but may be fixed at 100 or 0 respectively in a 3-parameter fit. The Hill Coefficient normally allowed to float but may also be fixed at 1 in a 3-parameter fit. Y is the % inhibition and X is the compound concentration.

[2] = 120 h, Z-138 cells, 5 days, Cell Titer Glo

Row | EC50 ([1]; In Cell Western methylation) [nM] | IC50 (PRMT5/MEP50; PRMT5 biochemical assay) [nM] | IC50 (PRMT5/MEP50) [nM] | SMILES | EC50 (Z-138 cell line; [2]) [nM] | also measured
1 | < 100 | < 100 |  | O=C(NC[C@H](O)CN1CCc2ccccc2C1)c1cc(N[C@H]2C[C@@H](N3CCOCC3)C2)ncn1 [Compound 637] | 101 to 1000 | 
2 | < 100 | < 100 |  | CC(=O)N1CCC(Nc2cc(C(=O)NC[C@H](O)CN3CCc4ccccc4C3)nc(N3CCN(C)CC3)c2)CC1 [Compound 684] | 101 to 1000 | 
3 |  |  | < 100 | CC(C)NCCOc1ccc(C(=O)NC[C@H](O)CN2CCc3ccccc3C2)cc1 [Compound 390] |  | EC50 [1]: < 100 nM; EC50 (Z-138 cell line; 120 h, Z-138 cells, 5 days): 1000 to 10000 nM
4 | > 1000 | < 100 |  | Cc1cnc(NC2CCNC2)cc1C(=O)NC[C@H](O)CN1CCc2ccccc2C1 (some centres unmarked) [Compound 400] | > 20000 | 
5 | < 100 | < 100 |  | CCC(=O)N1CC(Nc2cc(C(=O)NC[C@H](O)CN3CCc4ccccc4C3)ncn2)C1 [Compound 574] | < 100 | 
6 | < 100 | < 100 |  | CCc1nc(NC2COC2)cc(C(=O)NC[C@H](O)CN2CCc3ccccc3C2)n1 [Compound 452] | 101 to 1000 | 
7 | 101 to 1000 | 101 to 1000 |  | COC(CNC(=O)c1cc(NC2CCN(C(C)=O)CC2)ncn1)CN1CCc2ccccc2C1 (centres unmarked) [Compound 542] | > 5000 | 
8 | 1000 to 10000 | < 100 |  | CNC(=O)CN1CC(Nc2cc(C(=O)NC[C@H](O)CN3CCc4ccccc4C3)ncn2)C1 [Compound 622] | 1000 to 10000 | 
9 | < 100 | < 100 |  | CC(=O)N1CCN(c2nc(NC3CNC3)cc(C(=O)NC[C@H](O)CN3CCc4ccccc4C3)n2)CC1 [Compound 483] | 1000 to 10000 | 
10 | 101 to 1000 | < 100 |  | CN(C)CCN(C)c1nc(NC2CNC2)cc(C(=O)NC[C@H](O)CN2CCc3ccccc3C2)n1 [Compound 528] | 101 to 1000 | 
11 |  |  | 1000 to 10000 | NS(=O)(=O)c1ccccc1C(=O)NCC(O)CN1CCc2ccccc2C1 (centres unmarked) [Compound 33] |  | 
12 | > 1000 | 1000 to 10000 |  | O=C(NCC(F)CN1CCc2ccccc2C1)c1cc(NC2COC2)ncn1 (centres unmarked) [Compound 697] |  | 
13 |  |  | 1000 to 10000 | CS(=O)(=O)Nc1ccccc1C(=O)NCC(O)CN1CCc2ccccc2C1 (centres unmarked) [Compound 27] |  | 
14 |  |  | 101 to 1000 | CN(c1cccc(C(=O)NCC(O)CN2CCc3ccccc3C2)c1)C1CCOCC1 (centres unmarked) [Compound 49, N-(3-(3,4-dihydroisoquinolin-2(1H)-yl)-2-hydroxypropyl)-3-(methyl(tetrahydro-2H-pyran-4-yl)amino)benzamide] |  | 
15 |  |  | 1000 to 10000 | O=C(NCC(O)CN1CCc2ccccc2C1)c1cccc(C(=O)N2CCOCC2)c1 (centres unmarked) [Compound 46, N-(3-(3,4-dihydroisoquinolin-2(1H)-yl)-2-hydroxypropyl)-3-(morpholine-4-carbonyl)benzamide] |  | 
16 | 101 to 1000 | 1000 to 10000 |  | CC(=O)N1CCC(Nc2cc(C(=O)NC[C@H](O)CN3Cc4ccccc4CC3C)ccn2)CC1 (some centres unmarked) [Compound 696] |  | 
17 |  | 101 to 1000 |  | NC1=NC(C(=O)NC[C@H](O)CN2CCc3ccccc3C2)=CC2=NC(CO)CN12 (some centres unmarked) [Compound 625] | > 5000 | 
18 | > 1000 | 1000 to 10000 |  | CC(NC(=O)c1cc(NC2COC2)ncn1)[C@H](O)CN1CCc2ccccc2C1 (some centres unmarked) [Compound 493] |  | 
19 |  | < 100 |  | CCC(=O)N1CCC(Nc2cc(C(=O)NC[C@H](O)CN3CCc4ccccc4C3)ccn2)CC1 [Compound 454] | < 100 | 
20 | > 1000 | > 10000 |  | CC(=O)N1CCC(Nc2cc(C(=O)NC[C@H](O)CN3Cc4ccccc4C(C)C3)ccn2)CC1 (some centres unmarked) [Compound 695] |  | 

Row | EC50 ([1]; In Cell Western methylation) [nM] | IC50 (PRMT5/MEP50; PRMT5 biochemical assay) [nM] | IC50 (PRMT5/MEP50) [nM] | SMILES | EC50 (Z-138 cell line; [2]) [nM] | also measured
21 |  |  | 101 to 1000 | COc1cc(NC2CCOCC2)cc(C(=O)NCC(O)CN2CCc3ccccc3C2)c1 (centres unmarked) [Compound 56] |  | 
22 | > 1000 | > 10000 |  | CC(=O)N1CCC(Nc2cc(C(=O)NC[C@H](O)CN3Cc4ccccc4C(O)C3)ccn2)CC1 (some centres unmarked) [Compound 680] |  | 
23 |  |  | 101 to 1000 | O=C(NCC(O)CN1CCc2ccccc2C1)c1cccc(NC2COC2)c1 (centres unmarked) [Compound 50, N-(3-(3,4-dihydroisoquinolin-2(1H)-yl)-2-hydroxypropyl)-3-(oxetan-3-ylamino)benzamide] |  | 
24 |  |  | 101 to 1000 | CC1(C)CC(Nc2cccc(C(=O)NCC(O)CN3CCc4ccccc4C3)c2)CCO1 (centres unmarked) [Compound 53, N-(3-(3,4-dihydroisoquinolin-2(1H)-yl)-2-hydroxypropyl)-3-((2,2-dimethyltetrahydro-2H-pyran-4-yl)amino)benzamide] |  | 
25 |  | 101 to 1000 |  | CC(=O)N1CCC(Nc2cc(C(=O)NCC(N)CN3CCc4ccccc4C3)ncn2)CC1 (centres unmarked) [Compound 701] |  | 
26 |  | < 100 |  | O=C(NC[C@H](O)CN1CCc2ccccc2C1)c1ccnc(NC2CCN(C(=O)C3CCC3)CC2)c1 [Compound 455] | < 100 | 
27 |  |  | 101 to 1000 | O=C(NCC(O)CN1CCc2ccccc2C1)c1cc(NC2CCOCC2)ccc1F (centres unmarked) [Compound 57, N-(3-(3,4-dihydroisoquinolin-2(1H)-yl)-2-hydroxypropyl)-2-fluoro-5-((tetrahydro-2H-pyran-4-yl)amino)benzamide] |  | 
28 |  |  | 101 to 1000 | O=C(NCC(O)CN1CCc2ccccc2C1)c1cccc(CN2CCOCC2)c1 (centres unmarked) [Compound 51, N-(3-(3,4-dihydroisoquinolin-2(1H)-yl)-2-hydroxypropyl)-3-(morpholinomethyl)benzamide] |  | 
29 |  | 101 to 1000 |  | CC(=O)N1CC(Nc2cc(C(=O)NCC(N)CN3CCc4ccccc4C3)ncn2)C1 (centres unmarked) [Compound 699] |  | 
30 |  |  | 101 to 1000 | O=C(NCC(O)CN1CCc2ccccc2C1)c1cccc(OC2CCOCC2)c1 (centres unmarked) [Compound 48] |  | EC50 [1]: 101 to 1000 nM
31 |  |  | 101 to 1000 | CCN(c1cccc(C(=O)NCC(O)CN2CCc3ccccc3C2)c1)C1CCOCC1 (centres unmarked) [Compound 47] |  | EC50 [1]: 101 to 1000 nM
32 |  |  | 1000 to 10000 | COc1c(NC2COC2)ncnc1C(=O)NC[C@H](O)CN1CCc2ccccc2C1 [Compound 338] |  | 
33 |  | < 100 |  | CN(C)C(=O)CN1CC(Nc2cc(C(=O)NC[C@H](O)CN3CCc4ccccc4C3)ncn2)C1 [Compound 623] | 10000 to 50000 | 
34 |  |  | 101 to 1000 | CC(Nc1cccc(C(=O)NCC(O)CN2CCc3ccccc3C2)c1)C1CCOCC1 (centres unmarked) [Compound 52, N-(3-(3,4-dihydroisoquinolin-2(1H)-yl)-2-hydroxypropyl)-3-((1-(tetrahydro-2H-pyran-4-yl)ethyl)amino)benzamide] |  | 
35 |  |  |  | CN1CCC(Oc2ccc(C(=O)NCC(O)CN3CCc4ccccc4C3)cc2)C1 (centres unmarked) [Compound 177] |  | EC50 [1]: < 100 nM; EC50 (Z-138 cell line; 120 h, Z-138 cells, 5 days): 1000 to 10000 nM
36 |  |  |  | Cc1ccc2cc(C(=O)NC[C@H](O)CN3CCc4ccccc4C3)ccc2n1 [Compound 221, (S)—N-(3-(3,4-dihydroisoquinolin-2(1H)-yl)-2-hydroxypropyl)-2-methylquinoline-6-carboxamide] |  | EC50 [1]: < 100 nM; EC50 (Z-138 cell line; 120 h, Z-138 cells, 5 days): 101 to 1000 nM
37 |  |  |  | O=C(NC[C@@H](O)CN1CCc2ccccc2C1)c1cccc(-c2ccccn2)c1 [Compound 19] |  | EC50 [1]: 101 to 1000 nM; EC50 (Z-138 cell line; 120 h, Z-138 cells, 5 days): 10000 to 50000 nM
38 |  |  |  | O=C(NC[C@H](O)CN1CCc2ccccc2C1)c1cncc(OC2CCNCC2)c1 [Compound 260] |  | EC50 [1]: 101 to 1000 nM; EC50 (Z-138 cell line; 120 h, Z-138 cells, 5 days): > 20000 nM
39 |  |  |  | CC(=O)N1CC(Nc2cc(C(=O)NC[C@H](O)CN3CCc4ccccc4C3)ccn2)C1 [Compound 279] |  | EC50 [1]: < 100 nM; EC50 (Z-138 cell line; 120 h, Z-138 cells, 5 days): < 100 nM
40 |  |  |  | [2H]C1([2H])Cc2ccccc2C([2H])([2H])N1C[C@@H](O)CNC(=O)c1cc(NC2COC2)ncn1 [Compound 337] |  | EC50 [1]: < 100 nM; EC50 (Z-138 cell line; 120 h, Z-138 cells, 5 days): 101 to 1000 nM

Row | SMILES | EC50 ([1]; In Cell Western methylation) [nM] | IC50 (PRMT5/MEP50; PRMT5 biochemical assay) [nM] | IC50 (PRMT5/MEP50) [nM] | EC50 (Z-138 cell line; [2]) [nM] | also measured
41 | CCSCCN1CC(Nc2cc(C(=O)NC[C@H](O)CN3CCc4ccccc4C3)ncn2)C1 [Compound 581] | 101 to 1000 | < 100 |  |  | EC50 (Z-138 cell line; Z-138, 120 h): > 5000 nM
